Results taken from ChEMBL document CHEMBL1201862, “PubChem BioAssay data set” (2004).
The source made the active and inactive calls.

Legend:
[1] = target: T1, Sentrin-specific protease 8 (Homo sapiens, UniProt Q96LD8); assay: SENP8 protease inhibitors, SAR follow-up, biochemical, luminescence (AID 504501); assay type: functional
T1 sequence (Q96LD8 whole entry): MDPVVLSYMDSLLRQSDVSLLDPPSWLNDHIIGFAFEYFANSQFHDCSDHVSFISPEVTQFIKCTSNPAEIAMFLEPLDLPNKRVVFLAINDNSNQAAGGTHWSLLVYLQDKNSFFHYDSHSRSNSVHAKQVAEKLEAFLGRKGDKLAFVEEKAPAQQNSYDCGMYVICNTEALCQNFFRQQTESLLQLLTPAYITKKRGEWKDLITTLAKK

[2] = target: T2, Caspase-3 (Homo sapiens, UniProt P42574); assay: SAR Analysis of small molecule inhibitors of Sentrin-specific proteases (SENPs) using a Caspase-3 Selectivity assay. [Related pubchem assays (depositor defined):AID2540, AID2599, AID434973, AID489001]; assay type: functional
T2 sequence (P42574 whole entry): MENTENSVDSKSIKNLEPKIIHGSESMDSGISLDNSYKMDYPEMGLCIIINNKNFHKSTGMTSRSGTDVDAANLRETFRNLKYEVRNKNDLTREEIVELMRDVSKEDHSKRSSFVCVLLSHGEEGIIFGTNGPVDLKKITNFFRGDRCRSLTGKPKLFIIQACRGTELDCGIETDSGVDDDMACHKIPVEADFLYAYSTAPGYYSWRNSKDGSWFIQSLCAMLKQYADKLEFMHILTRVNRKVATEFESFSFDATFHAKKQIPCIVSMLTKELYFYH

[3] = target: T3, Sentrin-specific protease 7 (Homo sapiens, UniProt Q9BQF6); assay: SENP7 protease inhibitors, SAR follow-up, biochemical, luminescence (AID 504497); assay type: functional
T3 sequence (Q9BQF6 whole entry): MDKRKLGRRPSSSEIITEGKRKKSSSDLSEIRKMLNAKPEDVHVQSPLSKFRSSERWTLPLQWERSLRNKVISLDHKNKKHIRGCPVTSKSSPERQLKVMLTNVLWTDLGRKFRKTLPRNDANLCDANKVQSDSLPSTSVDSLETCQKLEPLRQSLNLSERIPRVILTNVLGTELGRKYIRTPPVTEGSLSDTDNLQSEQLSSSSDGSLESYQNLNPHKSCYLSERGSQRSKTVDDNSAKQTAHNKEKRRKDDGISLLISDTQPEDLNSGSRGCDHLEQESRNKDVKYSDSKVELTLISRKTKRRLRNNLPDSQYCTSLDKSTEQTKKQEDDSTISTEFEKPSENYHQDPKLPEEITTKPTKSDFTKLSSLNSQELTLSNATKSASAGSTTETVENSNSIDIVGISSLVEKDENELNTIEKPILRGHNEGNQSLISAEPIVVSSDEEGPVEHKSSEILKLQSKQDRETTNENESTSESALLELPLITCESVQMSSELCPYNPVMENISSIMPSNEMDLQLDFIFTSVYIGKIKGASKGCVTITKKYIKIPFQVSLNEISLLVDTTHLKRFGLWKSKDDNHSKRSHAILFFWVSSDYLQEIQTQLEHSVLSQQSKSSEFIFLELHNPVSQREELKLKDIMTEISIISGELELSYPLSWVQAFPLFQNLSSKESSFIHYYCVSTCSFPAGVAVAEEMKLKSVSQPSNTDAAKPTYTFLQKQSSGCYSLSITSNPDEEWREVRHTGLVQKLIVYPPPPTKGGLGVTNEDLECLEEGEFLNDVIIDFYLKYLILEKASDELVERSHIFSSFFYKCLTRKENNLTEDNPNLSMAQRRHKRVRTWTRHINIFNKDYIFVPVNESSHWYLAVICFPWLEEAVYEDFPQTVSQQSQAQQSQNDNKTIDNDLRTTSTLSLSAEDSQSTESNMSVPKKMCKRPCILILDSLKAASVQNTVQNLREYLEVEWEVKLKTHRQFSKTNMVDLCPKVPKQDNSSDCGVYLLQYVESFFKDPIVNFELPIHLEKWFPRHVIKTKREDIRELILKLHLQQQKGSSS

[4] = target: T4, Protein skinhead-1 (Caenorhabditis elegans, UniProt P34707); assay type: functional
T4 sequence (P34707 whole entry): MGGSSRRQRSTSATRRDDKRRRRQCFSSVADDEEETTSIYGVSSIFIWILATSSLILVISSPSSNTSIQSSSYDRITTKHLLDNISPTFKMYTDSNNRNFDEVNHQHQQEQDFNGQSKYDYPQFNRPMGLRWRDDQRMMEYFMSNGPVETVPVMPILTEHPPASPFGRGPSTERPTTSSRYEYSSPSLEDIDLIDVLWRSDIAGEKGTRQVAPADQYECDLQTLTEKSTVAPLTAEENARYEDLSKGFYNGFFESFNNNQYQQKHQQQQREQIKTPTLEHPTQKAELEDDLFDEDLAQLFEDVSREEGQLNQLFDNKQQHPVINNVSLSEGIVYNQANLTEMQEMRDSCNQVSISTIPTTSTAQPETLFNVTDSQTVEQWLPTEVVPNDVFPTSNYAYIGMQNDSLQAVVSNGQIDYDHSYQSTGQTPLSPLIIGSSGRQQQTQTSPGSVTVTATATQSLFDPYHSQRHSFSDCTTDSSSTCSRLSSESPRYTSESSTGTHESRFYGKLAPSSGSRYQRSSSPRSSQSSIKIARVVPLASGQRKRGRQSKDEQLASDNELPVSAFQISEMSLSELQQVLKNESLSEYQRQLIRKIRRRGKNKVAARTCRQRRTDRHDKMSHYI

[5] = target: T5, Sentrin-specific protease 6 (Homo sapiens, UniProt Q9GZR1); assay: SAR Analysis of small molecule inhibitors of Sentrin-specific protease 6 (SENP6) using a Luminescent assay. [Related pubchem assays (depositor defined):AID2582, AID2599]; assay type: functional
T5 sequence (Q9GZR1 whole entry): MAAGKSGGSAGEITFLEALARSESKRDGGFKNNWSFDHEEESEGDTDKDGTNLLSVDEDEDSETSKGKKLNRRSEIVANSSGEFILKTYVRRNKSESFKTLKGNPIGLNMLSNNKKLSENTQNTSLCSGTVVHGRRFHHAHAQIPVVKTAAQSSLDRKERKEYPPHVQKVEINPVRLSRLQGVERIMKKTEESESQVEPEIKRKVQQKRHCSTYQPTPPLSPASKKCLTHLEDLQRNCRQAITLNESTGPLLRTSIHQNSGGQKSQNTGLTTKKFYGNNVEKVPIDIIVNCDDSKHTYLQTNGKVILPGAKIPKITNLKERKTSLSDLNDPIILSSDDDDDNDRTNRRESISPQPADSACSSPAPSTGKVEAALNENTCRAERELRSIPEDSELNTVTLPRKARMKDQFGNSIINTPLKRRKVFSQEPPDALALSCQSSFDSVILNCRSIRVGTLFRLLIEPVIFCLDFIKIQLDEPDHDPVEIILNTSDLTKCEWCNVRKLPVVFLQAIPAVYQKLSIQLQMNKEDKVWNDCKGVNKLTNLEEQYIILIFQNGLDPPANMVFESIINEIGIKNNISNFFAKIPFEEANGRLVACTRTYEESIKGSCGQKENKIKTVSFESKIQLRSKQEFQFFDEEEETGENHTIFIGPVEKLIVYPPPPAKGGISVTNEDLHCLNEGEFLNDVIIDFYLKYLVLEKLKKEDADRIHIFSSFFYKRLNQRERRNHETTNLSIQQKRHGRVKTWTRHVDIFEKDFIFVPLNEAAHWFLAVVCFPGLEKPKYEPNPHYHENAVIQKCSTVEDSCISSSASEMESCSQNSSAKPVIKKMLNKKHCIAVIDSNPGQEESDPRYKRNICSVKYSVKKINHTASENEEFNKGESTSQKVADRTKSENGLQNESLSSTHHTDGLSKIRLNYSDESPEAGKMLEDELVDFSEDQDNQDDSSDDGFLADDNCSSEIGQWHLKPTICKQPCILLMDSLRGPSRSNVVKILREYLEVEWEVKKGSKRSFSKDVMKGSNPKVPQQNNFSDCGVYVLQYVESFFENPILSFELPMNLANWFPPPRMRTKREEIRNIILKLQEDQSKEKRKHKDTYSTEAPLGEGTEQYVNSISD

[6] = target: T6, Orexin/Hypocretin receptor type 1 (Homo sapiens, UniProt O43613); assay: Homogeneous Time Resolved Fluorescence (HTRF)-based cell-based high throughput dose response assay for antagonists of the orexin 1 receptor (OX1R; HCRTR1). [Related pubchem assays (depositor defined):AID434989, AID435008, AID463079, AID485270, AID492963, AID492964, AID492965, AID493232, AID504717, AID504718]; assay type: functional
T6 sequence (O43613 whole entry): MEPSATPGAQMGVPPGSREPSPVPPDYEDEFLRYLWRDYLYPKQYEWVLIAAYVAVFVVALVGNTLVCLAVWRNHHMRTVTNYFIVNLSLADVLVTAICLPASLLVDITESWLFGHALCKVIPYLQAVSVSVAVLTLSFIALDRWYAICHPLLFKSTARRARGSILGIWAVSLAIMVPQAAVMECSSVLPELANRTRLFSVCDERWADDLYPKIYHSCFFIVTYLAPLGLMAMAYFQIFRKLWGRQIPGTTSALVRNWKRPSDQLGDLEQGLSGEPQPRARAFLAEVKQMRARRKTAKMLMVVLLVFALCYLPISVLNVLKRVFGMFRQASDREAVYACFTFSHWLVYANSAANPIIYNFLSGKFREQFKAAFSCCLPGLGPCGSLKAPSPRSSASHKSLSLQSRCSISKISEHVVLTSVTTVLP

[7] = (§1) Counterscreen for antagonists of the orexin 1 receptor (OX1R; HCRTR1): Fluorescence-based cell-based high throughput dose response assay to identify antagonists of the parental CHO cell line. [Related pubchem assays (depositor defined):AID434989, AID435008, AID463079, AID485270, AID492963, AID492964, AID492965, AID493232, AID504699, AID504701]; assay type: functional
[8] = target: T7, Orexin receptor type 2 (Homo sapiens, UniProt O43614); assay: Counterscreen assay for antagonists of the orexin 1 receptor (OX1R; HCRTR1): Fluorescence-based cell-based dose response assay for antagonists of the orexin 2 receptor (OX2R; HCRTR2), run by assay provider.; assay type: functional
T7 sequence (O43614 whole entry): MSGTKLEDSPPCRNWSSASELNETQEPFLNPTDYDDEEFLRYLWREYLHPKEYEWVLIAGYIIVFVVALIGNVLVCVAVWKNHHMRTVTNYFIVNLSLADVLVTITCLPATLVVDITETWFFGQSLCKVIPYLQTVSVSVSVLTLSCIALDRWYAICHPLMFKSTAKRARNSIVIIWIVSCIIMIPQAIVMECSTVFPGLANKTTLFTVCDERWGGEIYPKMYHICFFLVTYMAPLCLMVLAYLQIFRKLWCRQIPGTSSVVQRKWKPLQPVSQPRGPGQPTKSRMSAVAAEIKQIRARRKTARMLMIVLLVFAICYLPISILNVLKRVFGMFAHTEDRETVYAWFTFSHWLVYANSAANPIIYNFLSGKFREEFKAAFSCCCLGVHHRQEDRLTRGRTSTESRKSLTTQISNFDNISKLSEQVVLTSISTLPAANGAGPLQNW

[9] = test system: CHO-K1; assay: as §1, with “Homogeneous time resolved fluorescence (HTRF)-based” for “Fluorescence-based”, “cell-based” for “cell-based high throughput”, “CHO-K1” for “CHO”; assay type: functional; details: Cricetulus griseus;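 also: potency for inhibition of ATP-stimulated IP1 production as antagonists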
[10] = target: T6, Orexin/Hypocretin receptor type 1; assay: Fluorescence-based cell-based high throughput dose response assay for antagonists of the orexin 1 receptor (OX1R; HCRTR1). [Related pubchem assays (depositor defined):AID434989, AID435008, AID463079, AID485270, AID492963, AID492964, AID492965, AID493232, AID504717, AID504718]; assay type: functional
[11] = target: T7, Orexin receptor type 2; assay: Counterscreen assay for antagonists of the orexin 1 receptor (OX1R; HCRTR1): Homogeneous Time Resolved Fluorescence (HTRF)-based cell-based dose response assay for antagonists of the orexin 2 receptor (OX2R; HCRTR2), run by assay provider.; assay type: functional
[12] = target: Cytochrome P450 2C9 (Homo sapiens, UniProt P11712)
Cytochrome P450 2C9, sequence (P11712 whole entry): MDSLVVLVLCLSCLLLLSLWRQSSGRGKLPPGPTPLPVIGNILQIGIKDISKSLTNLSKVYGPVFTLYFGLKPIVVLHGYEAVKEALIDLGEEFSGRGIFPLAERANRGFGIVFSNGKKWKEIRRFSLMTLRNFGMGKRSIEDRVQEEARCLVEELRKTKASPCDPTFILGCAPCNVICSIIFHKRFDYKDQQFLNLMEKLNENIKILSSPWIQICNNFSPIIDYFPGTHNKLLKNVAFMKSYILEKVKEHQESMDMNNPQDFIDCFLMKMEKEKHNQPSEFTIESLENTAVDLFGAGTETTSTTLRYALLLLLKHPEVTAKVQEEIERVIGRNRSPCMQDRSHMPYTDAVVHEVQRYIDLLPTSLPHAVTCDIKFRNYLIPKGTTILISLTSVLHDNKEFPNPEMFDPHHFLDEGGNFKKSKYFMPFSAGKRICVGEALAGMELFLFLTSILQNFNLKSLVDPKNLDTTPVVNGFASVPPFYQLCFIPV

[13] = target: Luciferin 4-monooxygenase (Photinus pyralis, UniProt P08659); assay: firefly luciferase enzyme inhibitors, dose response, biochemical, luminescence (AID 1891)
Luciferin 4-monooxygenase, sequence (P08659 whole entry): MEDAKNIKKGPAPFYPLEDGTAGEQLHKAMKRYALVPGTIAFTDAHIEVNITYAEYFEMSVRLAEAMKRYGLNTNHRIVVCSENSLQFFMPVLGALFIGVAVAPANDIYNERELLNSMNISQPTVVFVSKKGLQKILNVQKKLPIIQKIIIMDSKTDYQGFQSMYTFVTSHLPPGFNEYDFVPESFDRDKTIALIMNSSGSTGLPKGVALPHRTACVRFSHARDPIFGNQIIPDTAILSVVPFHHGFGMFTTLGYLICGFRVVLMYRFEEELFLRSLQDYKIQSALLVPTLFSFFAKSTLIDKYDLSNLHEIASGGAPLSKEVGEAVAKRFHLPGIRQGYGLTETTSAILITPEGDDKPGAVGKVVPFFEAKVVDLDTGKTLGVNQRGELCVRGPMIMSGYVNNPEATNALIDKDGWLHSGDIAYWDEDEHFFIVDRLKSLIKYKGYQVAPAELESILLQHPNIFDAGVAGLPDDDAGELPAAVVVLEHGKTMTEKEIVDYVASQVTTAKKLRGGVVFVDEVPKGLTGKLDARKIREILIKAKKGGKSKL

[14] = Luminescence Cell-Based Dose Confirmation HTS to Identify Inhibitors of Platelet Dense Granule Release. [Related pubchem assays: 1663 (Primary HTS), 1678 (Summary of Project)]; assay type: functional
[15] = target: Cytochrome P450 2D6 (Homo sapiens, UniProt P10635);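 also: CYP2D6 member of a cytochrome P450 panel assay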
Cytochrome P450 2D6, sequence (P10635 whole entry): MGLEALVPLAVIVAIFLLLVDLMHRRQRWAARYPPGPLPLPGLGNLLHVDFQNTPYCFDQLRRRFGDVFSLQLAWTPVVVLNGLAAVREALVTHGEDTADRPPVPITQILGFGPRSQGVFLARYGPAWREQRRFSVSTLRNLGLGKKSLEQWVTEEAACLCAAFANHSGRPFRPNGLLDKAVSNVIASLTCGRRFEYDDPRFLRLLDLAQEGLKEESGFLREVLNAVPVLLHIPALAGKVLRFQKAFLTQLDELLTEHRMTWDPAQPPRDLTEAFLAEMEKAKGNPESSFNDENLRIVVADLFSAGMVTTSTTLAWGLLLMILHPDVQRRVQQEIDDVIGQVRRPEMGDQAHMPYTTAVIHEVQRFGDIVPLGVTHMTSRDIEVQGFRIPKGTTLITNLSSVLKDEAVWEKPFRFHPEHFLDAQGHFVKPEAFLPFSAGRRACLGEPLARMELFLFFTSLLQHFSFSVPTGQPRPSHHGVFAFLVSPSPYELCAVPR

IC50 [2]	IC50 [3]	IC50 [4]	IC50 [5]	SMILES	IC50 [1]	IC50 [6]	IC50 [7]	IC50 [8]	IC50 [9]	IC50 [10]	IC50 [11]	AC50 [12]	EC50 [13]	EC50 [14]	AC50 [15]
6.4 µM (active)	4.3 µM (active)	> 100 µM (inactive)	39 µM (active)	Fc1ccc(/C=C/c2nnc(-c3cccs3)o2)cc1	47 µM (active)	–	–	–	–	–	–	–	–	–	–
–	–	–	–	COc1ccc(NC(=O)C(=O)Nc2cccc3cccnc23)cc1OC	–	0.475 µM (active)	> 49.8 µM (inactive)	> 88.8 µM (inactive)	> 66.2 µM (inactive)	1.34 µM (active)	> 50 µM (inactive)	–	–	–	–
> 99 µM (inactive)	> 99 µM (inactive)	–	> 99 µM (inactive)	C/C(=C\c1ccccc1)c1nc(-c2cccc(C(F)(F)F)c2)no1	> 99 µM (inactive)	–	–	–	–	–	–	–	–	–	–
13 µM (active)	2.6 µM (active)	–	4.5 µM (active)	O=C(Nc1nc2c(Br)cccc2s1)c1ccc2c(c1)OCCO2	5.3 µM (active)	–	–	–	–	–	–	–	–	–	–
–	–	–	–	COc1ccc(/C=N/Nc2snc(SC)c2C#N)cc1OC	–	1.93 µM (active)	> 49.8 µM (inactive)	> 88.8 µM (inactive)	> 66.2 µM (inactive)	4.85 µM (active)	> 50 µM (inactive)	12.6 µM (inconclusive)	46.8 µM (active)	> 112 µM (not active)	0.282 µM (inconclusive)
